From patent US9540323B2 (BRISTOL-MYERS SQUIBB COMPANY, priority 2012, dated 2017) come the findings set out here.

For assay [1], the target named is cloned human P2Y1 receptors (Homo sapiens (Human), UniProt P47900). Description: Binding Assay B - Scintillation Proximity Assay (SPA) for P2Y1 binding, [33P] 2MeS-ADP. As to conditions: SPA, 0.3 nM [33P] 2MeS-ADP, Cheng-Prusoff; read-out: P2Y1 Ki (nM) using binding assay B. On the procedure:
Binding Assay B—Scintillation Proximity Assay (SPA) for P2Y1 Binding
A SPA membrane binding assay was used to identify inhibitors of [^33P] […] Reactions were allowed to proceed to completion at room temperature for 1 hour followed by centrifugation of the plate for 5 min. About 40 μL of the aqueous solution was aspirated. Plates were sealed and the [^33P]
On the technique in general: In a scintillation proximity assay essentially only radioactivity close to the scintillant gives light.

The test system of assay [2] is human platelet rich plasma (PRP). Description: ADP induced platelet aggregation assay. As to conditions: Homo sapiens, Platelet, 5 min, read-out: PA IC50 (μM) @ 10 μM ADP, human PRP, 10 μM ADP, AUC at 5 minute.

Chain of cloned human P2Y1 receptors (P47900 whole entry): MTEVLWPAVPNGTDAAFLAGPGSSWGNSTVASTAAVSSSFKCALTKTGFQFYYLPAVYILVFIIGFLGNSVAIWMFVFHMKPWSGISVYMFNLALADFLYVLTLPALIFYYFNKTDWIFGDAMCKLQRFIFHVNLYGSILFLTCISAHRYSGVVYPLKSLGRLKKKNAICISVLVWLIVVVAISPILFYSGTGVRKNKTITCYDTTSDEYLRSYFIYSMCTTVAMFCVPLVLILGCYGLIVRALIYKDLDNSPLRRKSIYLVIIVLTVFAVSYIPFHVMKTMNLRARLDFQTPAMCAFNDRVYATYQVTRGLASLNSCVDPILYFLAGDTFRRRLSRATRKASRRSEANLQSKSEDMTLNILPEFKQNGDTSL

For `Cc1cnc2oc(-c3ccc(O)c4c3C(C)(C)CN4c3ccccc3NC(=O)Nc3ccc(OC(F)(F)F)cc3)nc2c1` [Example 102, 1-(2-(7-Hydroxy-3,3-dimethyl-4-(6-methyloxazolo[5,4-b]pyridin-2-yl)indolin-1-yl)phenyl)-3-(4-(trifluoromethoxy)phenyl)urea], the Ki (in general, a dissociation constant, usually derived from enzyme kinetics or from competition with a known ligand) in assay [1] was determined as 11.2 nM. The IC50 – broadly, the concentration that inhibits the measured activity by half – in assay [2] came to 0.97 µM.
In the same order, the values of `CC1(C)CN(c2ccccc2NC(=O)Nc2ccc(OC(F)(F)F)cc2)c2c(O)c(F)cc(Br)c21` [Example 69, 1-(2-(4-Bromo-6-fluoro-7-hydroxy-3,3-dimethylindolin-1-yl)phenyl)-3-(4-(trifluoromethoxy)phenyl)urea] are 18.1 nM and 0.83 µM.
`CC1(C)CN(c2ccccc2NC(=O)Nc2nc3ccc(Cl)cc3s2)c2c(O)ccc(C(F)(F)F)c21` [Example 19, 1-(6-Chlorobenzo[d]thiazol-2-yl)-3-(2-(7-hydroxy-3,3-dimethyl-4-(trifluoromethyl)indolin-1-yl)phenyl)urea]: the Ki in assay [1] is 23.6 nM. The 50% inhibitory concentration (IC50) in assay [2] worked out at 0.12 µM.
In the same order, the values of `CC1(C)CN(c2ccccc2NC(=O)Nc2nc3ccc(Cl)nc3s2)c2c(O)cc(F)c(-c3noc(C(F)(F)F)n3)c21` [Example 257, 1-(5-Chlorothiazolo[5,4-b]pyridin-2-yl)-3-(2-(5-fluoro-7-hydroxy-3,3-dimethyl-4-(5-(trifluoromethyl)-1,2,4-oxadiazol-3-yl)indolin-1-yl)phenyl)urea] are 86.2 nM and 0.29 µM.
In the same order, the values of `CC1(C)CN(c2ccccc2NC(=O)Nc2csc(Cl)n2)c2c(O)cc(F)c(-c3nc4cc(F)ccc4s3)c21` [Example 181, 1-(2-Chlorothiazol-4-yl)-3-(2-(5-fluoro-4-(5-fluorobenzo[d]thiazol-2-yl)-7-hydroxy-3,3-dimethylindolin-1-yl)phenyl)urea] are 9.7 nM and 0.49 µM.
Consider `COc1ccc2nc(NC(=O)Nc3ccccc3N3CC(C)(C)c4c(-c5nc6ccc(F)cc6s5)c(F)cc(O)c43)sc2c1` [Example 179, 1-(2-(5-Fluoro-4-(6-fluorobenzo[d]thiazol-2-yl)-7-hydroxy-3,3-dimethylindolin-1-yl)phenyl)-3-(6-methoxybenzo[d]thiazol-2-yl)urea], for which the Ki in assay [1] was 22.6 nM. In assay [2], the IC50 stood at 0.49 µM.
On to `CC1(C)CN(c2ccccc2NC(=O)Nc2ccc(OC(F)(F)F)cc2)c2c(O)ccc(Cl)c21` [Example 56, 1-(2-(4-Chloro-7-hydroxy-3,3-dimethylindolin-1-yl)phenyl)-3-(4-(trifluoromethoxy)phenyl)urea], for which the Ki in assay [1] came to 8.7 nM. For the same compound, the half-maximal inhibitory concentration (IC50) in assay [2] came out at 0.87 µM.
In the same order, the values of `CC1(C)CN(c2ccccc2NC(=O)Nc2ccc(OC(F)(F)F)cc2)c2c(O)ccc(-c3nc4cnccc4o3)c21` [Example 96, 1-(2-(7-Hydroxy-3,3-dimethyl-4-(oxazolo[4,5-c]pyridin-2-yl)indolin-1-yl)phenyl)-3-(4-(trifluoromethoxy)phenyl)urea] are 22.2 nM and 2.99 µM.
In the same order, the values of `CC1(C)CN(c2cccc(F)c2NC(=O)Nc2ccc(F)cc2F)c2c(O)ccc(C(F)(F)F)c21` [Example 61, 1-(2,4-Difluorophenyl)-3-(2-fluoro-6-(7-hydroxy-3,3-dimethyl-4-(trifluoromethyl)indolin-1-yl)phenyl)urea] are 5.2 nM and 0.54 µM.
Consider `CC1(C)CN(c2ccccc2NC(=O)Nc2ccc(OC(F)(F)F)cc2)c2c(O)cc(F)c(-c3ccc(F)cn3)c21` [Example 159, 1-(2-(5-Fluoro-4-(5-fluoropyridin-2-yl)-7-hydroxy-3,3-dimethylindolin-1-yl)phenyl)-3-(4-(trifluoromethoxy)phenyl)urea], for which the Ki in assay [1] was determined as 7.4 nM. Besides, in assay [2], the IC50 is 0.3 µM.
In the same order, the values of `CC1(C)CN(c2ccccc2NC(=O)Nc2nc3ccc(F)cc3s2)c2c(O)cc(F)c(-c3ccc(C(F)(F)F)cn3)c21` [Example 168, 1-(2-(5-Fluoro-7-hydroxy-3,3-dimethyl-4-(5-(trifluoromethyl)pyridin-2-yl)indolin-1-yl)phenyl)-3-(6-fluorobenzo[d]thiazol-2-yl)urea] are 29.4 nM and 0.45 µM.
In the same order, the values of `CCC1(CC)CN(c2ccccc2NC(=O)Nc2ccc(C3CCCN3CC(C)C)cc2)c2c(O)ccc(F)c21` (centres unmarked) [Example 30, 1-(2-(3,3-Diethyl-4-fluoro-7-hydroxyindolin-1-yl)phenyl)-3-(4-(1-isobutylpyrrolidin-2-yl)phenyl)urea] are 5.1 nM and 0.28 µM.
In the same order, the values of `CSc1ncc(-c2c(F)cc(O)c3c2C(C)(C)CN3c2ccccc2NC(=O)Nc2ccc(OC(F)(F)F)cc2)cn1` [Example 189, 1-(2-(5-Fluoro-7-hydroxy-3,3-dimethyl-4-(2-(methylthio)pyrimidin-5-yl)indolin-1-yl)phenyl)-3-(4-(trifluoromethoxy)phenyl)urea] are 7.2 nM and 0.25 µM.
As for `Cc1nc(-c2c(F)cc(O)c3c2C(C)(C)CN3c2ccccc2NC(=O)Nc2ccc(OC(F)(F)F)cc2)co1` [Example 274, 1-(2-(5-Fluoro-7-hydroxy-3,3-dimethyl-4-(2-methyloxazol-4-yl)indolin-1-yl)phenyl)-3-(4-(trifluoromethoxy)phenyl)urea], the inhibition constant (Ki) in assay [1] came to 7.4 nM. In addition, in assay [2], the IC50 was 3.39 µM.
In the case of `CC1(C)CN(c2ccccc2NC(=O)Nc2nc3ccc(Cl)nc3s2)c2c(O)ccc(-c3ccc(F)cc3)c21` [Example 209, 1-(5-Chlorothiazolo[5,4-b]pyridin-2-yl)-3-(2-(4-(4-fluorophenyl)-7-hydroxy-3,3-dimethylindolin-1-yl)phenyl)urea], the Ki in assay [1] is 13 nM. Further, the IC50 in assay [2] stood at 0.23 µM.
`CC1(C)CN(c2ccccc2NC(=O)Nc2nc3ccc(F)cc3s2)c2c(O)ccc(-c3nc4cc(Cl)ccc4s3)c21` [Example 100, 1-(2-(4-(5-Chlorobenzo[d]thiazol-2-yl)-7-hydroxy-3,3-dimethylindolin-1-yl)phenyl)-3-(6-fluorobenzo[d]thiazol-2-yl)urea]: in assay [1], the inhibition constant Ki is 38.4 nM. For the same compound, the IC50 in assay [2] turned out to be 0.27 µM.
As for `CC1(C)CN(c2ccccc2NC(=O)Nc2nc3ccc(F)cc3s2)c2c(O)cc(F)c(-c3ccc(Cl)cc3)c21` [Example 224, 1-(2-(4-(4-Chlorophenyl)-5-fluoro-7-hydroxy-3,3-dimethylindolin-1-yl)phenyl)-3-(6-fluorobenzo[d]thiazol-2-yl)urea], the inhibition constant Ki in assay [1] was determined as 26.1 nM. Also, the IC50 in assay [2] stood at 0.34 µM.
In the same order, the values of `CCSc1nsc(NC(=O)Nc2ccccc2N2CC(CC)(CC)c3c(F)ccc(O)c32)n1` [Example 33, 1-(2-(3,3-Diethyl-4-fluoro-7-hydroxyindolin-1-yl)phenyl)-3-(3-(ethylthio)-1,2,4-thiadiazol-5-yl)urea] are 7.6 nM and 0.55 µM.
In the same order, the values of `CC1(C)CN(c2ccccc2NC(=O)Nc2csc(C(F)(F)F)n2)c2c(O)cc(F)c(-c3nc4cc(Cl)ccc4s3)c21` [Example 180, 1-(2-(4-(5-Chlorobenzo[d]thiazol-2-yl)-5-fluoro-7-hydroxy-3,3-dimethylindolin-1-yl)phenyl)-3-(2-(trifluoromethyl)thiazol-4-yl)urea] are 28.4 nM and 0.56 µM.
